{"source": "paper PMC9384988", "about": "“The TPR domain of PgaA is a multifunctional scaffold that binds PNAG and modulates PgaB-dependent polymer processing” (PLoS Pathogens, 2022)", "molecules": {"B1": {"name": "PgaA: E. coli PgaA residues 32–807, TPR domain plus outer membrane porin (protein)", "chain": "SAVNNAYDALIIEARKGNTQPALSWFALKSALSNNQIADWLQIALWAGQDKQVITVYNRYRHQQLPARGYAAVAVAYRNLQQWQNSLTLWQKALSLEPQNKDYQRGQILTLADAGHYDTALVKLKQLNSGAPDKANLLAEAYIYKLAGRHQDELRAMTESLPENASTQQYPTEYVQALRNNQLAAAIDDANLTPDIRADIHAELVRLSFMPTRSESERYAIADRALAQYAALEILWHDNPDRTAQYQRIQVDHLGALLTRDRYKDVISHYQRLKKTGQIIPPWGQYWVASAYLKDHQPKKAQSIMTELFYHKETIAPDLSDEELADLFYSHLESENYPGALTVTQHTINTSPPFLRLMGTPTSIPNDTWLQGHSFLSTVAKYSNDLPQAEMTARELAYNAPGNQGLRIDYASVLQARGWPRAAENELKKAEVIEPRNINLEVEQAWTALTLQEWQQAAVLTHDVVEREPQDPGVVRLKRAVDVHNLAELRIAGSTGIDAEGPDSGKHDVDLTTIVYSPPLKDNWRGFAGFGYADGQFSEGKGIVRDWLAGVEWRSRNIWLEAEYAERVFNHEHKPGARLSGWYDFNDNWRIGSQLERLSHRVPLRAMKNGVTGNSAQAYVRWYQNERRKYGVSWAFTDFSDSNQRHEVSLEGQERIWSSPYLIVDFLPSLYYEQNTEHDTPYYNPIKTFDIVPAFEASHLLWRSYENSWEQIFSAGVGASWQKHYGTDVVTQLGYGQRISWNDVIDAGATLRWEKRPYDGDREHNLYVEFDMTFRF", "modifications": "left off: His6, N-terminal, kept", "notes": "E. coli PgaA residues 32–807, TPR domain plus outer membrane porin"}}, "key": {"[1]": {"target": "T1, PgaA-220-367 (Escherichia coli, UniProt P69434)", "T1 construct": "His6 (thrombin cleavable, pET28) (N); made in house; host or cells: E. coli BL21 CodonPlus (DE3)", "T1 sequence (P69434 220-367)": "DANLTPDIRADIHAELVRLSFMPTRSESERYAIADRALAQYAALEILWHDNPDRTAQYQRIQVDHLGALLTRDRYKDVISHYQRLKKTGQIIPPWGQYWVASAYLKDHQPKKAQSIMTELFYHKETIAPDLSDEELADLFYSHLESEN", "assay": "Direct ESI-MS binding assay, PgaA-220-367", "set-up": "species or system E. coli", "conditions": "25°C and pH 7, direct ESI-MS assay; for Kd: read-out: Kd, TPR region 220–367", "experimental": "(§1) Solutions of PgaA220-367 (5.7 μM) and PgaA32-367 (11.6 μM) were used for binding assay. […] Binding measurements were carried out in positive ion mode using a Synapt G2S ESI-Q-IMS-TOF mass spectrometer (Waters, Manchester, UK) equipped with nanoflow ESI (nanoESI) source. NanoESI was performed by applying a voltage of ~1 kV to a platinum wire inserted into the nanoESI tip, which was produced from a borosilicate glass capillary (1.0 mm o.d., 0.68 mm i.d.) pulled to ~5 μm o.d. using a P−1000 micropipette puller (Sutter Instruments, Novato, CA). The source temperature and gas flow rate was 60°C and 2 mL/min, respectively. The Cone, Trap and Transfer voltages were 20 V, 3 V and 1 V, respectively. MassLynx software (version 4.1) was used for data acquisition and processing.\n(§2) The Kd for protein (P)—ligand (L) binding was calculated from the abundance ratio of L-bound to free P ions (i.e., R), measured by ESI-MS: R = Ab(PL)/Ab(P) = [PL]/[P], Kd = [P][L]/[PL] = [L]0/R—[P]0/(R+1), where [P]0 and [L]0 are initial concentrations of protein and ligand, correspondingly. Non-specific protein-ligand binding was corrected as published."}, "[2]": {"target": "T2, PgaA-32-367 (Escherichia coli, UniProt P69434)", "T2 construct": "His6 (thrombin cleavable, pET28) (N); made in house; host or cells: E. coli BL21 CodonPlus", "T2 sequence (P69434 32-367)": "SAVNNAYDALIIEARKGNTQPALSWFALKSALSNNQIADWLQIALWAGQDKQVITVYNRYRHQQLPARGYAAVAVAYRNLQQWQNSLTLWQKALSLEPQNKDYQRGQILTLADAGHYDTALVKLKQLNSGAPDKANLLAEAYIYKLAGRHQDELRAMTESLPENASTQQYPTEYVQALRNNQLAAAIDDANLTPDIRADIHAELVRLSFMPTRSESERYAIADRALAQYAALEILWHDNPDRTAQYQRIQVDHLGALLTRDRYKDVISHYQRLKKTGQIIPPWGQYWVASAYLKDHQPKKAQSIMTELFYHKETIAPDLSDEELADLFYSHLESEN", "assay": "Direct ESI-MS binding assay, PgaA-32-367", "set-up": "species or system E. coli", "conditions": "25°C and pH 7, direct ESI-MS assay; for Kd: read-out: Kd, TPR region 32–367", "experimental": "as §1, §2"}, "[3]": {"target": "PgaA-32-220", "assay": "ESI-MS binding test, PgaA-32-220", "set-up": "species or system E. coli", "conditions": "sample partially degraded", "experimental": "PgaA32-220 was analyzed using the SolariX 15 T FT-ICR mass spectrometer (Bruker-Daltonics, Billerica, MA), equipped with a dynamically harmonized ParaCell and nanoESI source. […] The instrumental parameters for these measurements were: glass capillary exit voltage (200 V); source drying gas (N2, 4 L/min and 120°C); deflector plate (220 V). The RF amplitude of the ion-funnels was 300 V peak-to-peak, and the applied voltages were 150 V and 6 V for funnels 1 and 2, respectively. The voltage of skimmer 1 was 30 V and the skimmer 2 voltage was 5 V. Accumulation time in the hexapole collision cell was 0.7 s; the time-of-flight was 2 ms. The operating pressure in UHV region was ~5×10^−10 mbar. Data acquisition was performed using the FtmsControl software (version 2.2). The time-domain signal, consisting of the sum of 25 transients, containing 2M data points per transient, was subjected to one zero-fill prior to Fourier-transform."}, "[4]": {"target": "T3, His-PgaA (PgaA-32-807) (E. coli K-12, UniProt P69434 32-807)", "T3 construct": "also called His-PgaA-32-807; full-length PgaA; source: E. coli BL21: co-expressed with PgaB, in DDM extract of the lysate pellet (pull-down); expressed alone or with PgaB and purified (NiNTA, gel filtration, DDM); not shown: His6, N-terminal, kept", "T3 sequence (looked up)": "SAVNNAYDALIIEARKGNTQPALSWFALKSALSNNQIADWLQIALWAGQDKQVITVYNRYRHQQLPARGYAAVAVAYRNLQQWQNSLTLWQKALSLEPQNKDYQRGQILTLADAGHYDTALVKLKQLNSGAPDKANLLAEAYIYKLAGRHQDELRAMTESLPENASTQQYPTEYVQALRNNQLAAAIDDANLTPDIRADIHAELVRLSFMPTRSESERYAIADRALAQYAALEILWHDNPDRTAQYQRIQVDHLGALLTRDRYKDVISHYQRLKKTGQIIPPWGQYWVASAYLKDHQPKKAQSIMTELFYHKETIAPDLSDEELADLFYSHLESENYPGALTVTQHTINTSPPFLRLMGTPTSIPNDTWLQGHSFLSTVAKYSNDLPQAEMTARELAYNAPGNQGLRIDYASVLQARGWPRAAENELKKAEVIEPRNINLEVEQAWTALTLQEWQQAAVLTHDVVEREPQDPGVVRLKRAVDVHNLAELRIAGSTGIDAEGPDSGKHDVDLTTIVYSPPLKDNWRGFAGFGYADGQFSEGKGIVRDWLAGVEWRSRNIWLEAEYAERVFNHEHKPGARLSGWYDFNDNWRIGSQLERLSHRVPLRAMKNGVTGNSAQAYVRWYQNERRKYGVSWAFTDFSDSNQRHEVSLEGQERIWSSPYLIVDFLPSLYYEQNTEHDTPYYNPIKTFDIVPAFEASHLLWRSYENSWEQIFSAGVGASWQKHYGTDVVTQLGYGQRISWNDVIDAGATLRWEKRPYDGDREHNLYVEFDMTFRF"}, "[5]": {"assay": "Fluorescamine de-acetylation assay", "format": "biochemical", "conditions": "30 μM enzyme and 30 mM PNAG hexamer; fluorescamine readout", "experimental": "To determine whether the modulation of enzyme activity might be a common theme for the TPR domain across synthase-dependent systems, we assayed the deacetylase and glycoside hydrolase activities of PgaB in the presence and absence of PgaA. As we used co-expression to obtain the complexes, a SDS PAGE gel of the purified solutions of PgaA, PgaB and PgaA/B complexes was analyzed to ensure that equal quantities of the protein/protein complex were used (Fig 2A). Consistent with previous published studies, PgaA and PgaB appear to form a 1:1 complex. The deacetylase activity was assessed using a fluorescamine-based assay with fully acetylated PNAG hexamers as the substrate. As fluorescamine detects the presence of primary amines, which are generated during the deacetylation of the PNAG oligosaccharide, this assay provides a direct readout of the deacetylation activity of PgaB. To assess the glycoside hydrolase activity, we used a biofilm disruption assay, which has been used previously to characterize PgaB’s glycosidase activity. In this assay, biofilms of Staphylococcus epidermidis strain SE801 were grown in 96 well plates for 24 h, at which point PgaB was added. After a further 2 h, the reaction was quenched, plates washes and the amount of adherent biofilm remaining quantified using crystal violet staining. […]"}}}
{"molecule": "CC(=O)N[C@H]1[C@H](OC[C@H]2O[C@@H](OC[C@H]3O[C@@H](OC[C@H]4O[C@@H](OC[C@H]5OC(O)[C@H](NC(C)=O)[C@@H](O)[C@@H]5O)[C@H](NC(C)=O)[C@@H](O)[C@@H]4O)[C@H](N)[C@@H](O)[C@@H]3O)[C@H](NC(C)=O)[C@@H](O)[C@@H]2O)O[C@H](CO)[C@@H](O)[C@@H]1O", "note": "(stereo partly shown) [(GlcNAc)2-GlcN-(GlcNAc)2]", "values": [{"measurement": "Kd", "setting": "[1]", "value": 1.3, "unit": "mM"}, {"measurement": "Kd", "setting": "[2]", "value": 2.3, "unit": "mM"}, {"measurement": "binding to TPR region 32–220", "setting": "[3]", "value": "No binding"}]}
{"molecule": "CC(=O)N[C@H]1[C@H](O[C@H]2[C@@H](O)[C@@H](CO)O[C@@H](O[C@@H]([C@H](O)[C@@H](O)C=O)[C@H](O)CO)[C@@H]2O)O[C@H](CO)[C@@H](O)[C@@H]1O[C@@H]1O[C@H](CO)[C@H](O)[C@H](O)[C@H]1O[C@@H]1O[C@@H](C)[C@@H](O)[C@@H](O)[C@@H]1O", "note": "[LNF1, lacto-N-fucopentaose, reference compound]", "values": [{"measurement": "Kd, TPR region 220–367", "setting": "[1]", "value": "No binding"}, {"measurement": "Kd, TPR region 32–367", "setting": "[2]", "value": "No binding"}]}
{"molecule": "PgaB-22-672 (soluble form of PgaB) (from UniProt P75906 22-672) (enzyme)", "values": [{"measurement": "fluorescamine-based deacetylation assay with PNAG hexamer, concentration of GlcN produced (PgaA+B, individually purified and mixed)", "setting": "[4]", "value": 1290, "unit": "µM"}]}
{"molecule": "CC(=O)N[C@H]1[C@H](OC[C@H]2O[C@@H](OC[C@H]3O[C@@H](OC[C@H]4O[C@@H](OC[C@H]5OC(O)[C@H](NC(C)=O)[C@@H](O)[C@@H]5O)[C@H](NC(C)=O)[C@@H](O)[C@@H]4O)[C@H](NC(C)=O)[C@@H](O)[C@@H]3O)[C@H](NC(C)=O)[C@@H](O)[C@@H]2O)O[C@H](CO)[C@@H](O)[C@@H]1O", "note": "(stereo partly shown)", "values": [{"measurement": "Kd", "setting": "[1]", "value": 1.7, "unit": "mM"}, {"measurement": "Kd", "setting": "[2]", "value": 10, "unit": "mM"}, {"measurement": "binding to TPR region 32–220", "setting": "[3]", "value": "No binding"}]}
{"molecule": "B1", "values": [{"measurement": "concentration of GlcN produced", "setting": "[5]", "value": "73.8 ± 6.3", "unit": "µM"}]}
